# Literature values in patent US11858967B2, “Compositions and methods for enhanced production of enduracidin in a genetically engineered strain of streptomyces fungicidicus” (Oregon State University, priority 2016, dated 2024).
# Like-named read-outs stand apart in the source and are kept apart here.
# Assays:
# [1] = system: Gram-positive organisms, including methicillin-resistant Staphylococcus aureus (MRSA) and vancomycin-resistant Enterococcus (VRE)
# [2] = system: S. aureus (100 strains, including 40% MRSA); details: 100 strains of S. aureus
# [3] = mice, rabbits, dogs and monkeys
# [4] = monkey, in vivo
# [5] = rat, in vivo
# MRSA = details: humans, i.m. 100 mg every 12 hours
# [6] = in vivo
substance,measurement,setting,value
Enduracidin,type of antibacterial effect,[1],bactericidal
same,Minimum inhibitory concentrations (MICs),[1]; as low as,≥ 0.05 µg/mL
same,concentration at which no strain was able to survive exposure,[2],1 µg/mL
same,acute LD50,[3]; intraperitoneal,750 to 910 mg/kg
same,acute LD50,[3]; intravenous,30 to 125 mg/kg
same,acute LD50,"[3]; subcutaneous, intramuscular (i.m.) or oral",5000 to 10000 mg/kg
same,activity towards Clostridium spp.,Clostridium spp.,excellent activity
same,findings after long-term dosing,[4],localized inflammation at the injection site
same,findings after long-term dosing,[5],localized inflammation at the injection site
same,efficacy in chronic bone infections,MRSA,not chronic bone infections
same,efficacy in urinary tract and skin infections caused by MRSA,MRSA,highly effective
same,oral bioavailability,[6],lack of oral bioavailability
